Source: patent US5110927A (The United States of America as represented by the …, priority 1987, dated 1992)
Entries after “also recorded” stand apart in the source; their conditions may differ.

Key:
[1] = test system: α1-adrenoceptor (3H-prazosin binding sites); assay: irreversibility experiment: membranes preincubated with compound, washed, assayed for saturation of 3H-prazosin binding; set-up: species or system rat; conditions: for irreversible blockade / effect on 3H-prazosin binding sites (in words): membranes, preincubation and washing
[2] = biological target: α1-adrenoceptor (3H-prazosin binding sites); assay: displacement of 3H-prazosin from rat cerebral cortical (brain) membranes; conditions: for -logIC50: 3H-prazosin displacement, rat cerebral cortical membranes; for affinity to alpha1-adrenoceptors (in words): discussion of Table 1
Experimental: IC50 values and apparent Ki values were determined as in Table 1.
Rat brain cortices were homogenized in approximately 30 volumes/wet weight of 50 mM Tris buffer, pH 7.4, containing 10 mM MgCl2 by use of a Polytron (setting 6 for 10 seconds). It should be noted that this buffer was used throughout the experimental procedures. The homogenate was centrifuged at 48,000×g for 10 minutes in a Sorvall RC-5B centrifuge. The resulting pellet was resuspended in buffer by use of a Polytron and recentrifuged. This process was repeated and the pellet was resuspended in approximately 200 volumes for affinity studies or 20 volumes for irreversibility experiments.
Specific binding was defined as the difference between total binding (measured in the absence of any ligand) and non-specific binding (measured in the presence of 10 microM phentolamine). Duplicate tubes were used for each condition. Reaction tubes were incubated for 30 minutes at 30° C., then diluted to 5 ml with ice cold buffer, and filtered under reduced pressure through Whatman GF/C glass fiber filters. The reaction tubes and filters were washed three additional times with buffer.

[3] = test system: alpha1-adrenoceptors and other receptors; conditions: prior art, cited from earlier work
[4] = test system: spontaneously hypertensive rats; conditions: conscious; previously shown; cited from earlier work

Row | Structure (SMILES) | irreversible blockade / effect on 3H-prazosin binding sites (in words) [1] | -logIC50 [2] | affinity to alpha1-adrenoceptors (in words) [2] | receptor specificity (in words) [3] | other results
1 | C/C=C/C=C/C(=O)N1CCN(c2nc(N)c3cc(OC)c(OC)cc3n2)CC1 [Compound 6] | did not irreversibly block alpha1 -adrenoceptors; also recorded: do not attach irreversibly to the receptor | 8.81 | high affinity |  | 
2 | CC(COc1ccccc1)N(CCCl)Cc1ccccc1 (stereo not shown) [phenoxybenzamine, reference compound] | block almost all ^3 -prazosin binding sites in brain membranes |  |  | not very specific | Kd (KD) of remaining 3H-prazosin binding sites (in words) ([1]; after preincubation and washing): without significant Kd changes in the remaining sites; blockade of 3H-prazosin binding sites by phenoxybenzamine ([1]; brain membranes, FIG. 4): approximately 85%
3 | COc1cc2nc(N3CCN(C(=O)/C=C/c4ccccc4)CC3)nc(N)c2cc1OC [Compound 9] | do not attach irreversibly to the receptor | 9.16 |  |  | reduction of blood pressure in spontaneously hypertensive rats [4]: capable of reducing blood pressure
4 | COc1cc2nc(N3CCN(C(=O)C4=CC5CCC4CC5)CC3)nc(N)c2cc1OC [Compound 48] |  | 8.4 |  |  | overall behaviour compared with compound 47 [1]: behaves similarly to 47 in those aspects which were investigated
5 | c1c[nH]c(CNCCCCCCNCCSSCCNCCCCCCNCc2ccc[nH]2)c1 [pyrextramine] |  |  |  | block peripheral alpha2 -adrenergic responses as well | 
6 | CCOC(=O)N1c2ccccc2C=CC1OCC (stereo not shown) [N-ethoxycarbonyl-2-ethoxy-1,2-dihydroquinoline] |  |  |  | receptor specificity of N-ethoxycarbonyl-2-ethoxy-1,2-dihydroquinoline is also low | concentration required relative to more specific chemoreactive labels ([3]; factor higher): about 10^4
7 | COc1cc2nc(N3CCN(C(=O)CBr)CC3)nc(N)c2cc1OC [Compound 3] |  | 5.27 | low affinity |  | 
8 | COc1cc2nc(N3CCN(C(=O)c4ccc5ccccc5c4)CC3)nc(N)c2cc1OC [Compound 24] |  | 7.31 | decreased considerably |  | 
